Data reported in ChEMBL document CHEMBL4813991, “Design, synthesis and bioactivity study on 5-phenylfuran derivatives as potent reversal agents against P-glycoprotein-mediated multidrug resistance in MCF-7/ADR cell” (Eur J Med Chem, 2021).
Activity calls are given as the source filed them. The rule behind the calls is not given here.

Tests used:
MCF7 [1] = experiment: Antiproliferative activity against human MCF7 cells assessed as inhibition rate at 10 uM incubated for 48 hrs by CCK-8 assay; format: functional
[2] = Antiproliferative activity against human MCF7/ADR cells assessed as inhibition rate at 10 uM incubated for 48 hrs by CCK-8 assay; format: functional; conditions: NCI/ADR-RES
[3] = Antiproliferative activity against human MCF7/ADR cells assessed as inhibition rate at 50 uM incubated for 48 hrs by CCK-8 assay; format: functional; conditions: NCI/ADR-RES
MCF7 [4] = experiment: Antiproliferative activity against human MCF7 cells assessed as inhibition rate at 50 uM incubated for 48 hrs by CCK-8 assay; format: functional
[5] = target: T1, ATP-dependent translocase ABCB1 (Homo sapiens, UniProt P08183); experiment: Inhibition of P-glycoprotein in human MCF7/ADR cells assessed as rhodamine-123 accumulation by measuring fluorescence intensity at 1 uM measured after 30 mins by flow cytometry analysis; format: cell-based; conditions: nci/adr-res, 0.5 h
[6] = target: T1, ATP-dependent translocase ABCB1; experiment: Inhibition of P-glycoprotein in human MCF7/ADR cells assessed as reversal fold by measuring reduction in doxorubicin IC50 at 0.05 uM incubated for 48 hrs by CCK-8 assay; format: cell-based; conditions: nci/adr-res
[7] = target: T1, ATP-dependent translocase ABCB1; experiment: Inhibition of P-glycoprotein in human MCF7/ADR cells assessed as rhodamine-123 accumulation by measuring fluorescence intensity at 10 uM measured after 30 mins by flow cytometry analysis; format: cell-based; conditions: nci/adr-res, 0.5 h
[8] = target: T1, ATP-dependent translocase ABCB1; experiment: Inhibition of P-glycoprotein in human MCF7/ADR cells assessed as reversal fold by measuring reduction in doxorubicin IC50 at 0.5 uM incubated for 48 hrs by CCK-8 assay; format: cell-based; conditions: nci/adr-res
[9] = target: T1, ATP-dependent translocase ABCB1; experiment: Inhibition of P-glycoprotein in human MCF7/ADR cells assessed as rhodamine-123 accumulation by measuring fluorescence intensity at 0.1 uM measured after 30 mins by flow cytometry analysis; format: cell-based; conditions: nci/adr-res, 0.5 h
NCI/ADR-RES [10] = experiment: Effect on P-glycoprotein expression in human MCF7/ADR cells upto 10 uM after 48 hrs by Western blot analysis; format: functional, cell-based; conditions: dose microM <=10, time 48.0 hrs
NCI/ADR-RES [11] = experiment: Antiproliferative activity against human MCF7/ADR cells incubated for 48 hrs by CCK-8 assay; format: functional, cell-based
[12] = target: T1, ATP-dependent translocase ABCB1; experiment: Inhibition of P-glycoprotein in human MCF7/ADR cells assessed as reversal fold by measuring reduction in vincristine IC50 at 5 uM incubated for 48 hrs by CCK-8 assay; format: cell-based; conditions: nci/adr-res
[13] = target: T1, ATP-dependent translocase ABCB1; experiment: Inhibition of P-glycoprotein in human MCF7/ADR cells assessed as reversal fold by measuring reduction in daunorubicin IC50 at 5 uM incubated for 48 hrs by CCK-8 assay; format: cell-based; conditions: nci/adr-res
[14] = target: T1, ATP-dependent translocase ABCB1; experiment: Inhibition of P-glycoprotein in human MCF7/ADR cells assessed as reversal fold by measuring reduction in paclitaxel IC50 at 5 uM incubated for 48 hrs by CCK-8 assay; format: cell-based; conditions: nci/adr-res

T1 sequence (P08183 whole entry): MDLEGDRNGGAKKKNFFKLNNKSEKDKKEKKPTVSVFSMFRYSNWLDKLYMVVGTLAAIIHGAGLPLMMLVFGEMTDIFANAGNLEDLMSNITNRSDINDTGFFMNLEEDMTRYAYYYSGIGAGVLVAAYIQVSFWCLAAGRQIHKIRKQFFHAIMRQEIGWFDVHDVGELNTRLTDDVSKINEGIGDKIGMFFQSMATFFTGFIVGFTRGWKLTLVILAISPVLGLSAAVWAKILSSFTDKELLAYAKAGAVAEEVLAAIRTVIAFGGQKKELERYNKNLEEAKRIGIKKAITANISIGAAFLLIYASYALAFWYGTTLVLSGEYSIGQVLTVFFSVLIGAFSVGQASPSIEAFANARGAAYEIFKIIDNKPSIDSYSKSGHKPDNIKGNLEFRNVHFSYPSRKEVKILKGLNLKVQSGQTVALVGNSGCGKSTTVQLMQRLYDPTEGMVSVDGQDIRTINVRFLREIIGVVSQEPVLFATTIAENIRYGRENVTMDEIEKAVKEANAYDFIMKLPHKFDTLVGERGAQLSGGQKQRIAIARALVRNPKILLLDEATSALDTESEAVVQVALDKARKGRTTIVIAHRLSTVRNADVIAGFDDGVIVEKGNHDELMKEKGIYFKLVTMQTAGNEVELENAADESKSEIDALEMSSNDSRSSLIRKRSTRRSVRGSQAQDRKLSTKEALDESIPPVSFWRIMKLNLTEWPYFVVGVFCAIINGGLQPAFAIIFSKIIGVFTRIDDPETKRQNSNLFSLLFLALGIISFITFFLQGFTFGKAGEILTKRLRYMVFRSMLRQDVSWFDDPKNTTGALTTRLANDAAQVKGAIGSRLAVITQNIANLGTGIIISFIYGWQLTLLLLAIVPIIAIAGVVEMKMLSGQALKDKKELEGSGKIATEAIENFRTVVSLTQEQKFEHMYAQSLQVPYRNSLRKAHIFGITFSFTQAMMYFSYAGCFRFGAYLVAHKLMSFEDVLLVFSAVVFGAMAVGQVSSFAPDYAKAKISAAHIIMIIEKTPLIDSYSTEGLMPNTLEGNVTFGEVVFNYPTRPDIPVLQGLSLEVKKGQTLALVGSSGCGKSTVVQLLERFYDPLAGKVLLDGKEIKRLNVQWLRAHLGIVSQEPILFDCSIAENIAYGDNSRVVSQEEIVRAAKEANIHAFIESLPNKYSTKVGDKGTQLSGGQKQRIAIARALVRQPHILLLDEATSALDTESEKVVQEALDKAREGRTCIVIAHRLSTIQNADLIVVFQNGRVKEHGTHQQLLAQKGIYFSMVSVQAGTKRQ

Row | SMILES | inhibition at 10 µM (MCF7 [1]) | inhibition at 50 µM [3] | inhibition at 50 µM (MCF7 [4]) | also measured
1 | COc1ccc(OC)c(-c2ccc(C(=O)N3CCc4cc(OC)c(OC)cc4C3)o2)c1 | 11.4% | 68.2% | 63.6% | inhibition at 10 µM [2]: 23.2%
2 | COc1ccc(-c2ccc(C(=O)N3CCc4cc(OC)c(OC)cc4C3)o2)c(OC)c1 | 15.4% | 59.8% | 49.3% | inhibition at 10 µM [2]: 28.4%
3 | CCCOc1ccc(-c2ccc(C(=O)N3CCc4cc(OC)c(OC)cc4C3)o2)cc1 |  | 32.3% | 36.2% | 
4 | COc1cc2c(cc1OC)CN(C(=O)c1ccc(-c3ccc(OC(C)C)cc3)o1)CC2 |  | 20% | 38.1% | inhibition (INH) [5]: Active; fold change (FC) [6]: 1.9; inhibition (INH) [7]: Active; fold change (FC) [8]: 6.7; inhibition (INH) [9]: Not Active; Activity (NCI/ADR-RES [10]): inactive
5 | COc1cc2c(cc1OC)CN(C(=O)c1ccc(-c3ccc(Oc4ccccc4)cc3)o1)CC2 | 7% | 57% | 45.4% | inhibition at 10 µM [2]: 27.6%
6 | COc1ccc(CCN(C)CCCC(C#N)(c2ccc(OC)c(OC)c2)C(C)C)cc1OC (stereo unspecified) | 8.3% |  |  | inhibition at 10 µM [2]: 25%
7 | CC[C@]1(O)C[C@H]2CN(CCc3c([nH]c4ccccc34)[C@@](C(=O)OC)(c3cc4c(cc3OC)N(C=O)[C@H]3[C@@](O)(C(=O)OC)[C@H](OC(C)=O)[C@]5(CC)C=CCN6CC[C@]43[C@@H]65)C2)C1 [VINCRISTINE] |  |  |  | IC50 (NCI/ADR-RES [11]): 10.1 µM; fold change (FC) [12]: 62.8
8 | COc1cc2c(cc1OC)CN(C(=O)c1ccc(-c3ccc(OC(C)(C)C)cc3)o1)CC2 |  | 28.9% | 33.8% | 
9 | COc1cc(OC)cc(-c2ccc(C(=O)N3CCc4cc(OC)c(OC)cc4C3)o2)c1 | 19.8% | 52.9% | 81.8% | inhibition at 10 µM [2]: 21.7%
10 | COc1cccc(-c2ccc(C(=O)N3CCc4cc(OC)c(OC)cc4C3)o2)c1 |  | 1.5% | -9.9% | 
11 | COc1cc2c(cc1OC)CN(C(=O)c1ccc(-c3ccc(OCC(C)C)cc3)o1)CC2 |  | 11.9% | 19.2% | 
12 | COc1cc2c(cc1OC)CN(C(=O)c1ccc(-c3cc(OC)c(OC)c(OC)c3)o1)CC2 | 30% | 51.2% | 64.7% | inhibition at 10 µM [2]: 19.6%
13 | COc1cc2c(cc1OC)CN(C(=O)c1ccc(-c3ccc(OC(F)(F)F)cc3)o1)CC2 |  | 12.7% | -4.1% | 
14 | COc1ccc(-c2ccc(C(=O)N3CCc4cc(OC)c(OC)cc4C3)o2)cc1 |  | -2.1% | 20.4% | 
15 | CCOc1ccc(-c2ccc(C(=O)N3CCc4cc(OC)c(OC)cc4C3)o2)cc1 |  | 8.1% | 20.5% | 
16 | COc1cc2c(cc1OC)CN(C(=O)c1ccc(-c3ccccc3OC)o1)CC2 | 55.9% | 36.9% | 66% | 
17 | COc1cc2c(cc1OC)CN(C(=O)c1ccc(-c3ccc(SC(C)C)cc3)o1)CC2 |  | 39% | 33.6% | 
18 | CCCCOc1ccc(-c2ccc(C(=O)N3CCc4cc(OC)c(OC)cc4C3)o2)cc1 |  | 25.4% | 21% | 
19 | COc1cccc2c1C(=O)c1c(O)c3c(c(O)c1C2=O)C[C@@](O)(C(C)=O)C[C@@H]3O[C@H]1C[C@H](N)[C@H](O)[C@H](C)O1 [DAUNORUBICIN] |  |  |  | IC50 (NCI/ADR-RES [11]): 51.6 µM; fold change (FC) [13]: 2.8
20 | COc1cc2c(cc1OC)CN(C(=O)c1ccc(-c3ccc4c(c3)OCO4)o1)CC2 |  | 5.4% | 34% | 
21 | CC(=O)O[C@H]1C(=O)[C@@]2(C)[C@H]([C@H](OC(=O)c3ccccc3)[C@]3(O)C[C@H](OC(=O)[C@H](O)[C@@H](NC(=O)c4ccccc4)c4ccccc4)C(C)=C1C3(C)C)[C@]1(OC(C)=O)CO[C@@H]1C[C@@H]2O [PACLITAXEL] |  |  |  | IC50 (NCI/ADR-RES [11]): 58.7 µM; fold change (FC) [14]: 22.6
22 | COc1cc2c(cc1OC)CN(C(=O)c1ccc(-c3cccc(OC)c3OC)o1)CC2 |  | 10% | 39.4% | 
23 | COc1ccc(-c2ccc(C(=O)N3CCc4cc(OC)c(OC)cc4C3)o2)cc1OC | 17.6% | 26.7% | 41.8% | 
24 | C/C=C/C[C@@H](C)[C@@H](O)[C@H]1C(=O)N[C@@H](CC)C(=O)N(C)CC(=O)N(C)[C@@H](CC(C)C)C(=O)N[C@@H](C(C)C)C(=O)N(C)[C@@H](CC(C)C)C(=O)N[C@@H](C)C(=O)N[C@H](C)C(=O)N(C)[C@@H](CC(C)C)C(=O)N(C)[C@@H](CC(C)C)C(=O)N(C)[C@@H](C(C)C)C(=O)N1C [CYCLOSPORINE] | 19.3% |  |  | inhibition at 10 µM [2]: 22.7%
